For two compounds, IC50 and JAK2/JAK1 results are on record in US10479803B2, “Bicyclic heteroarylaminoalkyl phenyl derivatives as PI3K inhibitors” (Incyte Corporation, priority 2014, dated 2019).

The IC50 is the midpoint of a concentration-inhibition curve. Low values mean higher potency, high ones lower potency.

One experiment has as its target human JAK1 (Homo sapiens, UniProt P23458). The experiment in a line: In vitro JAK kinase assay (Example J), JAK1. It is filed as biochemical. To be noted: Assay J at 1 mM ATP.
The target of the next experiment is human JAK2 (Homo sapiens (Human), UniProt O60674). Briefly: In vitro JAK kinase assay (Example J), JAK2. The note with it: ratio of IC50s, Assay J at 1 mM ATP. It is filed as biochemical.
human JAK2, sequence (O60674 828-1132): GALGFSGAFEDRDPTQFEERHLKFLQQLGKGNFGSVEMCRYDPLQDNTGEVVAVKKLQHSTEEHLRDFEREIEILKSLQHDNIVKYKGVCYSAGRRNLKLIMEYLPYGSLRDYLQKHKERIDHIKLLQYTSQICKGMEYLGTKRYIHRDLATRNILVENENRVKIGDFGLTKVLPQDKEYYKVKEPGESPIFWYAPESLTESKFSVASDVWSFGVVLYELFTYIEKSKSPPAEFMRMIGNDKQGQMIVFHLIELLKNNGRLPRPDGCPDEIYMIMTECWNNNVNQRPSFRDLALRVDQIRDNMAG

At human JAK1, `N#CCC(CN1CCN(C(=O)c2ccc(C#N)cc2F)CC1)n1ccc(-c2ncnc3[nH]ccc23)c1` (stereo not drawn) [Example 6, 4-[(4-{3-cyano-2-[3-(7H-pyrrolo[2,3-d]pyrimidin-4-yl)-1H-pyrrol-1-yl]propyl}piperazin-1-yl)carbonyl]-3-fluorobenzonitrile] had an IC50 of under 10 nM. Moreover, the JAK2/JAK1 on human JAK2 is recorded as over 10.
Consider `C[C@@H](O)c1nc2cnc3ccsc3c2n1[C@H]1CC[C@H](CC#N)OC1` [#1, ((2R,5S)-5-{2-[(1R)-1-Hydroxyethyl]-1H-imidazo[4,5-d]thieno[3,2-b]pyridin-1-yl}tetrahydro-2H-pyran-2-yl)acetonitrile], for which the JAK2/JAK1 on human JAK2 is listed as over 10.
